The values that follow come from PubChem BioAssay (NCI).

The structures appear in SMILES notation.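 Protocol summary: plate cells (96-well), add compound at 5 concentrations, incubate 48 h, interpolate endpoints linearly. GI50: concentration for 50% inhibition of growth. TGI marks complete inhibition of growth.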 Where only a bound is given, the exact number is not on record here.

As usually defined, the GI50 is the concentration at which growth is held to half of that of the control. What is called TGI is the concentration giving total growth inhibition. A low value points to more potent growth arrest.

Test systems include 786-0 renal; A498 renal; NCI/ADR-RES ovarian; OVCAR-8 ovarian; RXF 393 renal; SF-295 CNS; SR leukemia; SW-620 colon; U251 CNS; UO-31 renal.
Common to all, as to assay: DTP human tumour cell line panel, 48 h

`NNC(=S)N/N=C/c1ccccn1`: the GI50 in the test on 786-0 renal is 1.76 µM; in the test on A498 renal it was 1.82 µM; in the test with NCI/ADR-RES ovarian, 2.81 µM; in the test with OVCAR-8 ovarian, 2.28 µM; with RXF 393 renal, 2.5 µM; in the test with SF-295 CNS, 3.06 µM. In addition, the GI50 in the test on SR leukemia was 0.884 µM; with SW-620 colon it was 3.89 µM; in the test on U251 CNS, 1.99 µM; with UO-31 renal, 3.99 µM. For the same compound, the total growth inhibition concentration (TGI) was greater than 100 µM in the test with 786-0 renal; 9.01 µM with A498 renal; greater than 100 µM with NCI/ADR-RES ovarian; greater than 100 µM in the test on OVCAR-8 ovarian; greater than 100 µM in the test with RXF 393 renal; greater than 100 µM with SF-295 CNS. For the same compound, the total growth inhibition concentration (TGI) with SR leukemia was 90.1 µM; with SW-620 colon it was greater than 100 µM; with U251 CNS, greater than 100 µM; in the test on UO-31 renal, greater than 100 µM.

`CCOC(=O)Nc1nc(-c2ccccc2)c(C)s1`: the TGI in the test with 786-0 renal, in the test on A498 renal, with NCI/ADR-RES ovarian, in the test on OVCAR-8 ovarian, in the test with RXF 393 renal and with SF-295 CNS was greater than 100 µM in each case. Besides, the TGI with SR leukemia, with SW-620 colon, with U251 CNS and in the test with UO-31 renal was greater than 100 µM in each case.

Take `Cc1cccc2c1NC(=O)[C@@H](NC(=O)[C@H](CCC(F)(F)F)[C@H](CCC(F)(F)F)C(N)=O)N=C2c1cccc(F)c1`: the GI50 in the test with 786-0 renal was 20.6 µM; in the test with A498 renal, 36.6 µM; in the test with NCI/ADR-RES ovarian, 26.3 µM; in the test on OVCAR-8 ovarian, 30.5 µM; with RXF 393 renal, 13.5 µM; in the test on SF-295 CNS, 25.8 µM. Further, the GI50 in the test on SR leukemia was 49.4 µM; in the test with SW-620 colon, greater than 100 µM; in the test with U251 CNS, 20.2 µM; with UO-31 renal, greater than 100 µM. The concentration for total growth inhibition (TGI) in the test with 786-0 renal is 56.3 µM; in the test on A498 renal, greater than 100 µM; with NCI/ADR-RES ovarian, greater than 100 µM; in the test on OVCAR-8 ovarian it was greater than 100 µM; in the test on RXF 393 renal it was 40.4 µM; with SF-295 CNS it was greater than 100 µM. Besides, the TGI was greater than 100 µM in the test on SR leukemia, greater than 100 µM in the test on SW-620 colon, 59.2 µM in the test with U251 CNS and greater than 100 µM with UO-31 renal.

`CN1CCN(C(=O)OCc2nc3c(N4CCOCC4)nc(-c4ccccc4)nc3n2C)CC1`: the GI50 in the test on 786-0 renal is 0.993 µM; in the test with A498 renal it was 1.53 µM; in the test with NCI/ADR-RES ovarian, 1.82 µM; with OVCAR-8 ovarian it was 1.17 µM; in the test with RXF 393 renal it was 0.687 µM; in the test on SF-295 CNS, 1.58 µM. The GI50 is 0.35 µM with SR leukemia, 0.329 µM in the test with SW-620 colon, 1.52 µM with U251 CNS and 0.377 µM with UO-31 renal. Moreover, the total growth inhibition concentration (TGI) amounted to 2.36 µM in the test on 786-0 renal; 2.91 µM in the test on A498 renal; 6.03 µM in the test on NCI/ADR-RES ovarian; 3.04 µM in the test with OVCAR-8 ovarian; 1.98 µM in the test on RXF 393 renal; 2.96 µM with SF-295 CNS. Also, the TGI in the test with SR leukemia is greater than 100 µM; with SW-620 colon, 1.19 µM; with U251 CNS, 3.17 µM; in the test with UO-31 renal, 1.8 µM.

Take `O=P1(O)c2ccccc2CSCc2ccccc21`: the TGI with 786-0 renal, with A498 renal, with NCI/ADR-RES ovarian, in the test on OVCAR-8 ovarian, in the test on RXF 393 renal and in the test on SF-295 CNS was greater than 100 µM throughout. In addition, the TGI in the test with SR leukemia, in the test with SW-620 colon, in the test with U251 CNS and in the test with UO-31 renal was greater than 100 µM each time.

In the case of `O=C(CSc1nc2ccc([N+](=O)[O-])cc2[nH]1)Nc1ccc([N+](=O)[O-])cc1`, the GI50 in the test with 786-0 renal is 3.02 µM; in the test on A498 renal, 1.34 µM; with NCI/ADR-RES ovarian, 2.46 µM; in the test on OVCAR-8 ovarian, 2.79 µM; in the test on RXF 393 renal, 1.95 µM; in the test with SF-295 CNS it was 2.03 µM. The GI50 in the test with SR leukemia is 3.15 µM; with SW-620 colon, 3.24 µM; with U251 CNS, 2.62 µM; in the test on UO-31 renal it was 1.4 µM. The total growth inhibition concentration (TGI) in the test with 786-0 renal was 13.5 µM; with A498 renal it was 3.8 µM; with NCI/ADR-RES ovarian, 8.19 µM; in the test on OVCAR-8 ovarian, greater than 35.7 µM; with RXF 393 renal, 7.24 µM; in the test on SF-295 CNS it was 6.43 µM. Moreover, the TGI is greater than 46.4 µM with SR leukemia, 17.6 µM in the test with SW-620 colon, 15.5 µM in the test on U251 CNS and 8.18 µM in the test with UO-31 renal.

Turning to `N#C/C(=C\c1ccc([N+](=O)[O-])cc1)n1nnc2cc(F)c(F)cc21`, the GI50 in the test on 786-0 renal was 1.86 µM; with A498 renal it was 1.9 µM; in the test on NCI/ADR-RES ovarian, 2.96 µM; in the test on OVCAR-8 ovarian, 2.14 µM; in the test with RXF 393 renal, 1.04 µM; with SF-295 CNS it was 2.08 µM. The GI50 was 1.08 µM in the test with SR leukemia, 1.73 µM with SW-620 colon, 1.66 µM in the test on U251 CNS and 1.25 µM in the test on UO-31 renal. Further, the TGI came out at 3.37 µM in the test with 786-0 renal; 3.71 µM with A498 renal; 11.6 µM in the test with NCI/ADR-RES ovarian; 6.17 µM in the test with OVCAR-8 ovarian; 2.39 µM in the test with RXF 393 renal; 5.29 µM in the test with SF-295 CNS. Also, the total growth inhibition concentration (TGI) is greater than 100 µM in the test on SR leukemia, 3.53 µM in the test with SW-620 colon, 3.27 µM in the test with U251 CNS and 2.5 µM with UO-31 renal.

With `COc1ccc(/C=C/C(=O)c2ccc(B(O)O)cc2)cc1O`, the GI50 in the test on 786-0 renal is 18.7 µM; in the test with A498 renal it was 5.47 µM; in the test on NCI/ADR-RES ovarian, 26.8 µM; in the test with OVCAR-8 ovarian it was 28.3 µM; with RXF 393 renal it was 11.5 µM; in the test on SF-295 CNS, 15.1 µM. Also, the GI50 with SR leukemia was 3.2 µM; in the test with SW-620 colon it was 3.83 µM; with U251 CNS, 9.37 µM; in the test on UO-31 renal, 16.7 µM. Moreover, the TGI in the test with 786-0 renal is 53.7 µM; in the test on A498 renal it was 21.8 µM; in the test on NCI/ADR-RES ovarian it was greater than 100 µM; in the test with OVCAR-8 ovarian it was greater than 77.9 µM; in the test on RXF 393 renal, 39.6 µM; in the test with SF-295 CNS it was 56.5 µM. The TGI in the test with SR leukemia is greater than 100 µM; with SW-620 colon it was 22 µM; in the test with U251 CNS, 27 µM; with UO-31 renal, greater than 92.8 µM.
